From the supplement of paper PMC10307832

Key:
Test in all cases: relative viability (nuclei count vs DMSO), 5 days (fraction); higher = more cells survive
[1] = compound: CN[C@@H]1C[C@H]2O[C@@](C)([C@@H]1OC)n1c3ccccc3c3c4c(c5c6ccccc6n2c5c31)C(=O)NC4 [Staurosporine] + Cc1nc(Nc2ncc(C(=O)Nc3c(C)cccc3Cl)s2)cc(N2CCN(CCO)CC2)n1 [Dasatinib] (partner 0.075 µM)
In short: (§1)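 Nuclei were stained with Hoechst during a one-step fixation (final 0.05% Triton X-100, 1% formaldehyde, 1 ug/ml Hoechst) carried out 5 days after dosing, then counted on 4× images. The cells, lung cancer lines in 1536-well plates, had been dosed by pin tool the day after seeding with one drug alone or a fixed anchor-drug dose plus five library-drug doses (not always all listed) in √10 steps. Relative viability is the nuclei count in treated wells divided by that in vehicle wells, and each value is the median of duplicate plates.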

[2] = compound: O=c1[nH]cc(F)c(=O)[nH]1 [5-Fluorouracil] + CC(C)C[C@H](NC(=O)[C@H](Cc1ccccc1)NC(=O)c1cnccn1)B(O)O [Bortezomib] (partner 0.002 µM)
In short: as §1

[3] = compound: O=c1[nH]cc(F)c(=O)[nH]1 [5-Fluorouracil] + CC(=O)Nc1cccc(-n2c(=O)n(C3CC3)c(=O)c3c(Nc4ccc(I)cc4F)n(C)c(=O)c(C)c32)c1 [Trametinib] (partner 0.02 µM)
In short: as §1

Sulindac + Decitabine = compound: CC1=C(CC(=O)O)c2cc(F)ccc2/C1=C\c1ccc([S+](C)[O-])cc1 [Sulindac] + Nc1ncn([C@H]2C[C@H](O)[C@@H](CO)O2)c(=O)n1 [Decitabine] (partner 2 µM)
In short: as §1

Cell Line | relative viability ([1]; first compound 0.005 µM) | relative viability ([1]; first compound 0.01581 µM) | relative viability ([1]; first compound 0.05 µM) | relative viability ([1]; first compound 0.1581 µM) | relative viability ([1]; first compound 0.5 µM) | relative viability ([2]; first compound 0.02 µM) | relative viability ([2]; first compound 0.2 µM) | relative viability ([2]; first compound 0.6325 µM) | relative viability ([2]; first compound 2 µM) | relative viability ([3]; first compound 0.02 µM) | relative viability ([3]; first compound 0.2 µM) | relative viability ([3]; first compound 0.6325 µM) | relative viability ([3]; first compound 2 µM) | relative viability (Sulindac + Decitabine; first compound 0.08 µM) | relative viability (Sulindac + Decitabine; first compound 0.253 µM) | relative viability (Sulindac + Decitabine; first compound 0.8 µM) | relative viability (Sulindac + Decitabine; first compound 2.53 µM) | relative viability (Sulindac + Decitabine; first compound 8 µM)
NCI-H1666 | 0.602 | 0.419 | 0.484 | 0.261 | 0.196 | 0.878 | 0.475 | 0.39 | 0.39 | 0.891 | 0.714 | 0.601 | 0.56 | 0.679 | 0.73 | 0.668 | 0.696 | 0.713
LOU-NH91 | 0.36 | 0.285 | 0.299 | 0.286 | 0.203 | 0.522 | 0.559 | 0.37 | 0.36 | 0.814 | 0.871 | 0.818 | 0.596 | 0.776 | 0.8 | 0.715 | 0.798 | 0.873
LXF-289 | 0.119 | 0.068 | 0.112 | 0.0474 | 0.0343 | 0.99 | 0.712 | 0.312 | 0.282 | 0.674 | 0.591 | 0.346 | 0.33 | 0.404 | 0.416 | 0.372 | 0.381 | 0.452
NCI-H1299 | – | – | – | – | – | 1.07 | 1.05 | 1.04 | 0.959 | – | – | – | – | – | – | – | – | –
HARA | 0.289 | – | 0.127 | 0.145 | 0.0757 | 1.17 | 1.15 | 1.08 | 1.03 | 0.852 | 0.625 | 0.856 | 0.644 | 0.704 | 0.492 | 0.398 | 0.46 | 0.521
LU99A | 0.353 | 0.227 | 0.176 | 0.191 | 0.112 | 1.08 | 1.14 | 1.01 | 0.593 | 0.655 | 0.559 | 0.374 | 0.268 | 1.05 | 0.806 | 0.86 | 0.782 | 1.17
201T | 0.55 | – | 0.544 | 0.402 | 0.279 | 1.11 | 1.04 | 0.417 | 0.346 | 0.715 | 0.563 | 0.305 | 0.284 | 0.879 | 0.874 | 0.818 | 0.848 | 0.928
HCC-827 | 0.391 | 0.423 | 0.372 | 0.319 | 0.305 | 0.805 | 1.1 | 0.733 | 0.596 | 0.407 | 0.544 | 0.425 | 0.276 | 0.342 | 0.31 | 0.328 | 0.332 | 0.291
NCI-H1703 | – | – | – | – | – | 0.326 | 0.36 | 0.314 | 0.365 | – | – | – | – | – | – | – | – | –
NCI-H1975 | 0.29 | 0.177 | 0.152 | 0.1 | 0.0812 | 0.472 | 0.3 | 0.214 | 0.17 | 0.307 | 0.548 | 0.313 | 0.238 | 0.594 | 0.413 | 0.352 | 0.394 | 0.36
NCI-H2023 | 0.365 | 0.198 | 0.126 | 0.0785 | 0.0455 | 0.803 | 0.214 | 0.11 | 0.0857 | 0.472 | 0.21 | 0.133 | 0.0877 | 0.233 | 0.234 | 0.203 | 0.206 | 0.254
ChaGo-K-1 | 0.621 | 0.491 | 0.475 | 0.147 | 0.128 | 0.955 | 1.04 | 0.7 | 0.705 | 0.934 | 0.796 | 0.691 | 0.499 | 0.601 | 0.484 | 0.466 | 0.515 | 0.523
COR-L 105 | 0.281 | – | 0.158 | 0.155 | 0.157 | 0.662 | 0.704 | 0.597 | 0.401 | 0.458 | 0.505 | 0.408 | 0.393 | 0.648 | 0.698 | 0.621 | 0.538 | 0.769
NCI-H2170 | 0.91 | – | 0.648 | 0.106 | 0.117 | – | – | – | – | 0.976 | 0.78 | 0.478 | 0.312 | 0.521 | 0.461 | 0.436 | 0.434 | 0.455
A549 | – | – | – | – | – | – | – | – | – | – | – | – | – | 0.262 | 0.247 | – | 0.29 | 0.232
NCI-H460 | 0.575 | 0.27 | 0.375 | 0.0523 | 0.009 | 1.34 | 0.488 | 0.141 | 0.0496 | 0.219 | 0.144 | 0.0819 | 0.0387 | 0.745 | 0.536 | 0.438 | 0.435 | 0.601
NCI-H1993 | 0.646 | 0.454 | 0.54 | 0.488 | 0.509 | 1.36 | 0.919 | 0.658 | 0.559 | 0.379 | 0.524 | 0.486 | 0.487 | 0.558 | 0.298 | 0.454 | 0.61 | 0.627
Calu-6 | – | – | – | – | – | 0.984 | 0.947 | 0.801 | 0.42 | – | – | – | – | – | – | – | – | –
SW 900 | 0.473 | 0.185 | 0.21 | 0.191 | 0.158 | – | – | – | – | 0.747 | 0.735 | 0.59 | 0.558 | 0.449 | 0.432 | – | – | 0.489
NCI-H1623 | 0.635 | 0.425 | 0.651 | 0.553 | 0.41 | – | – | – | – | – | – | – | – | – | – | – | – | –
NCI-H322M | 0.365 | 0.401 | 0.324 | 0.277 | 0.273 | 1.44 | 1.17 | 1.03 | 0.652 | 0.532 | 0.664 | 0.463 | 0.456 | 0.599 | 0.614 | 0.657 | 0.631 | 0.699
NCI-H2405 | 0.111 | 0.11 | 0.114 | 0.0659 | 0.0751 | 0.943 | 1.02 | 0.96 | 0.681 | 0.629 | 0.692 | 0.579 | 0.6 | 0.803 | 0.723 | 0.713 | 0.749 | 0.823
